Assays:
Assay type in all cases: cell-based, human
[1] = tested on: TM4SF5-expressing cells (SNU449T7); assay: Western blotting for signaling factors whose phosphorylation increases in a TM4SF5-expression dependent manner; conditions: for phosphorylation of FAK, STAT3, c-Src, S6K1, Akt, and p27: given concentrations; for phosphorylation of FAK, c-Src, STAT3, p27, S6K1, AKT, and STAT5: 5 µM, 24 hours (FIG. 9a-b)
Experimental: (§1) Cell extracts were obtained from cells grown to a density of 70-80% without any treatment, or from cells treated with vehicle DMSO or drugs at the given concentrations for 24 hours. For the extract of hepatocytes or liver cancer cells, a lysis buffer (150 mM NaCl, 1% NP-40, 50 mM Tris-HCl, 0.25% sodium deoxycholate, pH 7.4) including a protease inhibitor cocktail (GenDEPOT) was used. In addition, after washing animal liver tissue twice with PBS, SDS, Na3VO4, and protease inhibitor cocktails (GenDEPOT) were added to a lysis buffer [50 mM Tris-HCl, pH 7.4, 1% NP40, 0.25% sodium deoxycholate, 150 mM NaCl, 1 mM EDTA (based on 500 ml)], followed by treatment at 4°C for 15 minutes. After centrifugation at 13,000 rpm at 4°C for 30 minutes, only the supernatant was transferred to a new microcentrifuge tube. After quantification using BCA reagent (Thermo Scientific), a 4 × sample buffer [100% glycerol 4 ml, Tris-HCl, pH 6.8, 2.4 ml, SDS 0.8 g, Bromophenol blue 4 mg, betamercaptoethanol 0.4 ml, H2O 3.1 ml (based on 10 ml)] was added, followed by boiling at 100°C for 5 minutes. After performing SDS-PAGE electrophoresis with the above samples and transferring them to Nitrocellulose Membranes Protran™ nitrocellulose membranes (Whatman), pre-treatment was performed with 5% skim milk for 1 hour. After pre-treatment, primary antibodies of p-FAK(Y861) (SC-16663), p-FAK(Y577) (SC-16665), c-Src (SC-8056), STAT3 (SC-8019), p-AKT 1/2/3(S473) (SC-7985), STATS (SC-835), Laminin γ2 (SC-393225), COL1A1 (SC-28657), CCL5(RANTES) (SC-514019) CCL20(MIP-3α) (SC-517441), SIRT1 (SC-74465), ChREBP (SC-515922), SREBP1 (SC-366513), DGAT1 (SC-271934), DGAT2 (SC-293211), MICA/B (SC-137242), SLAMF7 (SC-390840), α-tublin (SC-5286), β-actin (SC-47778), FUCA (SC-365496) (the above from Santa Cruz Biotech, USA), p-FAK(Y397) (cat # 611723), FAK (cat # 610088), p27 (cat # 610242) (the above from BD Transduction, USA), p-FAK(Y925) (#3284) p-c-Src(Y416) (#2101), p-STAT3(Y705) (#9145), p70S6K1 (#9202), p-p70S6K1(T389) (#9205), p-STAT5(Y694) (#9314), ACC (#3676), FASN (#3189), CPT1A (#12252), p-ACC(S79) (#11818), HA (#3724), PD-L1 (#13684), PD-1 (#86163), p-ERK1/2(T202/Y204) (#9101s), ERK1/2 (#9102s) (the above from Cell Signaling Tech., USA), pS10p27(S10) (ab62364), human SLAMF6 (ab224201), TIGIT (ab233404), CD34 (ab81289) (the above from Abcam, UK), mouse SLAMF6 (PA5-87823), NKG2D (PA5-102038) (the above from Thermofisher, USA), α-SMA (Sigma Aldrich, A5228), CCL2 (Invitrogen, MA5-17040), and CD155(PVR) (Biolegend, 337601), HA (Biolegend, USA), Strep-HRP(horse-radish peroxidase), StrepMAB-HRP (IBA, USA), AFP (FineTest, FNab00203) were reacted at 4°C for 15 hours. The next day, secondary antibodies were reacted, and development was performed on X-ray film using ECL (Pierce, USA). Anti-TM4SF5C-ter (epitope region of RKKQDTPH^197) and anti-TM4SF5EC2 (CLMNGEWGYHFEDTAGA^130) were custom-made at a professional antibody production company (Pro-Sci, Poway, CA, USA).
Cell extracts were obtained before and after treating TM4SF5-non-expressing cells (SNU449Cp) and TM4SF5-expressing cells (SNU449T7) with ST-1-024 or ST-1-025 drugs at the given concentrations for 24 hours, and Western blotting was performed for signaling factors whose phosphorylation and activity increase in a TM4SF5-expression dependent manner.
(a) Cell extracts were obtained after treating TM4SF5-non-expressing cells (SNU449Cp) and TM4SF5-expressing cells (SNU449T7) with vehicle (DMSO), TSAHC, or isoxazole compounds ST-2-001, ST-2-002, ST-2-003, ST-2-004, ST-2-005, ST-2-006, ST-2-007, ST-2-008, ST-2-009, ST-2-010, or ST-2-011 at a dose of 5 µM (for 24 hours). Using these, Western blotting was performed for signaling factors whose phosphorylation and activity increase in a TM4SF5-expression dependent manner. […]

[2] = tested on: TM4SF5-expressing cells (SNU449T7); assay: 3D sphere growth/proliferation
Experimental: TM4SF5-non-expressing cells (SNU449Cp) and TM4SF5-expressing cells (SNU449T7) of the same number (200 cells/well or 1000 cells/well) were added per well into Costar Ultra-Low Attachment Multiple Well Plates (CORNING), and were then treated with vehicle (DMSO) or drugs at various concentrations and cultured in a cell incubator under conditions of 37°C and 5% CO2. After repeatedly treating with the same concentrations of drugs every few days at regular intervals as indicated from the date of cell culture, the proliferation of the cells (spheres) was observed and photographed using an optical microscope on the last day of observation.
The drugs treated were the positive control drug TSAHC or the ST-1-025 isoxazole compound at the given concentrations. From the time of starting culture (0 day), (FIG. 3a) in the case of 2D culture, the number of cells was measured after treating with the drug every 24 hours, or (FIG. 3b) in a 3D environment, the proliferation of cells (spheres) was observed and photographed with an optical microscope on the 5th and 7th days after a single drug treatment at the start of culture. […]

[3] = tested on: TM4SF5-non-expressing cells (SNU449Cp); assay: Western blotting for signaling factor phosphorylation in TM4SF5-non-expressing cells; conditions: 5 µM, 24 hours (FIG. 9a-b, blue-lined boxes)
Experimental: as §1
(a) Cell extracts were obtained after treating TM4SF5-non-expressing cells (SNU449Cp) and TM4SF5-expressing cells (SNU449T7) with vehicle (DMSO), ST-2-001, or an ST-2-001-based derivative drug at a concentration of 5 µM for 24 hours. (b) Cell extracts were obtained after treating SNU449Cp and SNU449T7 with DMSO, ST-2-001, ST-3-001, ST-3-006, ST-3-007, ST-3-010, or ST-3-011 at a concentration of 5 µM for 24 hours. (c) Cell extracts were obtained after treating SNU449Cp and SNU449T7 with DMSO, ST-2-001, ST-3-006, or ST-3-011 at the given concentrations for 24 hours. (a-c) Using the cell extracts obtained after the drug treatment, Western blotting was performed for signaling factors whose phosphorylation and activity increase in a TM4SF5-expression dependent manner.

SNU761-TM4SF5 = assay: Western blotting of SLAMF7 expression, TM4SF5-expressing SNU761 cells; conditions: chloroquine 10 µM, 24 hours (FIG. 15d)
Experimental: as §1, with “Anti-TM4SF5C-ter (epitope region of RKKQDTPH^197) and anti-TM4SF5EC2 (CLMNGEWGYHFEDTAGA^130) were custom-made at a professional antibody production company (Pro-Sci, Poway, CA, USA).” left out
After 24 hours, vehicle DMSO, drug ST-1-025, or ST-5-002 was treated at the given concentrations. […] (f) After treating NK92-EV or NK92-TM4SF5 cells with DMSO or drugs ST-2-001 (1 nM), ST-3-005 (10 nM or 1 µM), ST-5-001, or ST-5-002 (100 nM or 1 µM) for 24 hours, the expression of SLAMF7 expressed on the cell surface was analyzed through immunostaining using flow cytometry. The expression level of SLAMF7 was confirmed by adding a SLAMF7 antibody to bind with SLAMF7 and then measuring the fluorescence linked to the SLAMF7 antibody using flow cytometry. […]

[4] = 0.5 or 2.5 µM, observed 6th or 10th day (FIG. 10a, b)

Cc1ccc(S(=O)(=O)Nc2ccc(-c3cc(-c4ccc(O)cc4)no3)cc2)cc1 [ST-4-005, N-(4-(3-(4-hydroxyphenyl)isoxazole-5-yl)phenyl)-4-methylbenzenesulfonamide]
phosphorylation of FAK, STAT3, c-Src, S6K1, Akt, and p27 ([1]; 24 hours (FIG. 12a)): inhibited in many cases including STAT3, S6K1, and FAK | phosphorylation of FAK, STAT3, c-Src, S6K1, Akt, and p27 ([1]; 24 hours (FIG. 12d)): inhibited | survival/proliferation of the spheres ([2]; given concentrations on the 0, 3, 6, and 9th days, observed 10th day (FIG. 12b-c)): inhibited

C=CC(=O)Nc1ccc(-c2cc(-c3ccc(OC)cc3)on2)cc1 [ST-3-010, N-(4-(5-(4-methoxyphenyl)isoxazole-3-yl)phenyl)acrylamide]
phosphorylation of FAK, c-Src, STAT3, p27, S6K1, AKT, and STAT5 [1]: decreased | phosphorylation of some signaling factors [3]: increased | degree of three-dimensional cell proliferation ([2]; 0.1 or 1.0 µM, observed 10th day (FIG. 10c)): decreased | cell proliferation inhibitory effect ([2]; 0.5 or 2.5 µM (FIG. 10a, b), comparison among drugs): strong | degree of three-dimensional cell proliferation [2, 4]: inhibited

CCN(CC)CCCC(C)Nc1ccnc2cc(Cl)ccc12 (stereo not drawn) [CQ, chloroquine, reference compound]
reduction in SLAMF7 expression (SNU761-TM4SF5): not clearly seen

CC(=O)Nc1ccc(-c2cc(-c3ccc(C(C)(C)C)cc3)on2)cc1 [ST-3-007, N-(4-(5-(4-(tert-butyl)phenyl)isoxazole-3-yl)phenyl)acetamide]
phosphorylation of FAK, c-Src, STAT3, p27, S6K1, AKT, and STAT5 [1]: decreased | phosphorylation of some signaling factors [3]: increased | degree of three-dimensional cell proliferation [2, 4]: inhibited

Source: patent publication EP4772500A1, “NOVEL ISOXAZOLE COMPOUND AS TM4SF5-SPECIFIC INHIBITOR AND USE THEREOF” (Seoul National University R&DB Foundation, priority 2023, dated 2025)
